Assay: xn = mol fraction of the nth substance listed

CCCC(=O)[O-].OCC[NH2+]c1ccccc1 + O
303.15 K, 100 kPa
Settings	electrical conductivity [S/m]
x2 = 0.0163	0.000469
x2 = 0.03811	0.00047
x2 = 0.05476	0.000471
x2 = 0.07271	0.000472

CCCCCCCC[n+]1ccc(C)cc1.[Br-] + CO/N=C(\C(=O)N[C@@H]1C(=O)N2C(C(=O)[O-])=C(CSc3nc(=O)c(=O)[n-]n3C)CS[C@H]12)c1csc(N)n1.[Na+].[Na+] + O
viscosity [mPa·s], 100 kPa
Settings	288.15 K	293.15 K	298.15 K	303.15 K	308.15 K
x2 = 0, x1 = 0.0006354	1.179	1.031	0.915	0.817	0.737
x2 = 0, x1 = 0.0009577	1.196	1.046	0.929	0.833	0.749
x2 = 0, x1 = 0.001283	1.217	1.063	0.941	0.844	0.76
x2 = 0.0003362, x1 = 0.0009574	1.244	1.089	0.97	0.867	0.781
x2 = 0.0003451, x1 = 0.001283	1.269	1.108	0.977	0.863	0.786
x2 = 0.0003509, x1 = 0.0006352	1.243	1.076	0.949	0.847	0.77
x2 = 0.0008524, x1 = 0.0006349	1.314	1.15	1.021	0.909	0.816
x2 = 0.0008642, x1 = 0.001282	1.358	1.183	1.047	0.937	0.842
x2 = 0.0008856, x1 = 0.0009569	1.333	1.169	1.039	0.929	0.828
x2 = 0.001395, x1 = 0.0006346	1.411	1.235	1.094	0.974	0.873
x2 = 0.0014, x1 = 0.0009564	1.452	1.252	1.109	0.989	0.885
x2 = 0.00141, x1 = 0.001281	1.459	1.271	1.124	1.004	0.901
x2 = 0.001941, x1 = 0.0006342	1.52	1.33	1.174	1.046	0.936
x2 = 0.001965, x1 = 0.0009558	1.543	1.351	1.194	1.064	0.953
x2 = 0.00197, x1 = 0.001281	1.576	1.374	1.209	1.084	0.97
x2 = 0.002508, x1 = 0.0006339	1.642	1.433	1.264	1.124	1.006
x2 = 0.00254, x1 = 0.0009553	1.671	1.46	1.287	1.145	1.023
x2 = 0.00255, x1 = 0.00128	1.705	1.487	1.308	1.165	1.042
x2 = 0.003119, x1 = 0.0006335	1.786	1.558	1.372	1.219	1.091
x2 = 0.003121, x1 = 0.0009547	1.817	1.587	1.397	1.239	1.108
x2 = 0.003147, x1 = 0.001279	1.858	1.622	1.427	1.267	1.133
x2 = 0.003941, x1 = 0.0006329	2.01	1.747	1.535	1.359	1.212
x2 = 0.003972, x1 = 0.0009539	2.048	1.776	1.562	1.382	1.233
x2 = 0.003997, x1 = 0.001278	2.093	1.814	1.593	1.411	1.256
x2 = 0.004812, x1 = 0.0006324	2.281	1.979	1.732	1.528	1.36
x2 = 0.004853, x1 = 0.0009531	2.331	2.019	1.768	1.557	1.385
x2 = 0.004881, x1 = 0.001277	2.385	2.057	1.804	1.588	1.409
x2 = 0.005508, x1 = 0.000632	2.52	2.189	1.911	1.681	1.492
x2 = 0.005554, x1 = 0.0009524	2.59	2.238	1.952	1.714	1.52
x2 = 0.005588, x1 = 0.001276	2.64	2.289	1.996	1.757	1.559

NC(N)=O + O + CCCC[n+]1ccn(C)c1.F[B-](F)(F)F
298.15 K, 100 kPa
Settings	viscosity [mPa·s]
x1 = 0.008492, x2 = 0.9402	1.98
x1 = 0.01695, x2 = 0.9318	2.01
x1 = 0.02496, x2 = 0.9237	2.06
x1 = 0.03322, x2 = 0.9155	2.05
x1 = 0.0408, x2 = 0.9079	2.15

C[N+](C)(C)CCO.O=C([O-])CO + O
Settings	viscosity [mPa·s]
293.15 K, 101 kPa, x2 = 0.366	660

CCCC(=O)O + CC(CC(C)(C)C)CP(=O)([O-])CC(C)CC(C)(C)C.CCCCCCCCCCCCCC[P+](CCCCCC)(CCCCCC)CCCCCC + O
100 kPa
Settings	viscosity [mPa·s]
298 K, x2 = 0.09014, x1 = 0.601	53
298 K, x2 = 0.09759, x1 = 0.6041	54
298 K, x2 = 0.1129, x1 = 0.5867	83
310 K, x2 = 0.08641, x1 = 0.594	30
310 K, x2 = 0.1138, x1 = 0.593	47
310 K, x2 = 0.1346, x1 = 0.5734	58
310 K, x2 = 0.1366, x1 = 0.07313	82
310 K, x2 = 0.1673, x1 = 0.1732	84
310 K, x2 = 0.1882, x1 = 0.4901	87
310 K, x2 = 0.1908, x1 = 0.2923	90
310 K, x2 = 0.1962, x1 = 0.4196	91
318 K, x2 = 0.08808, x1 = 0.5881	24
318 K, x2 = 0.1141, x1 = 0.5826	35
318 K, x2 = 0.1336, x1 = 0.5507	44

CCCCCCCCCCCCCC[P+](CCCCCC)(CCCCCC)CCCCCC.[Br-] + O
100 kPa, x2 = 0.68
Settings	viscosity [mPa·s]
303.15 K	180.5
353.15 K	22.85

C[N+](C)(C)CCO.O=S(=O)([N-]S(=O)(=O)C(F)(F)F)C(F)(F)F + CC(O)CO
101 kPa
Settings	viscosity [mPa·s]
313.15 K, x2 = 0	56.4
313.15 K, x2 = 0.4786	28.6
318.15 K, x2 = 0.4786	23.6
328.15 K, x2 = 0.5867	15.4
333.15 K, x2 = 0	28.6
338.15 K, x2 = 0	24.6
343.15 K, x2 = 0.2189	14.68
343.15 K, x2 = 0.3834	12.15
343.15 K, x2 = 0.8744	6.61
348.15 K, x2 = 0	19.1

From the CheMixHub ionic liquid set
